Data as given in patent publication US8324166B2, “Neuroprotection using NAP-like and SAL-like peptide mimetics” (Ramot at Tel-Aviv University, Ltd., priority 2007, dated 2012).

System: rTg(tauP301L)4510 mouse (Tau-Tg)
Test: Morris water maze in Tau transgenic mice
Assay type: in vivo
Conditions: Tau-Tg female mice, intranasal NAT 2 μg/5 μl/mouse/day; p=0.039
Method: The mouse model, used in the current study, was previously described (Ramsden et al., (2005) J Neurosci, 25, 10637-10647). The rTg(tauP301L)4510 mouse (designated as Tau-Tg below) expresses the human 4-repeat Tau with the P301L mutation (4RON) associated with frontotemporal dementia and Parkinsonism linked to chromosome 17.
The experiment included three groups: Tau-Tg female mice, 10-month-old, treated by intranasal administration of NAT 2 μg/5 μl/mouse/day (n=5) or vehicle (SW/mouse/day) (n=6), and as control, non-Tg female littermates treated by vehicle (SW/mouse/day) (n=7).
NAT was dissolved in a vehicle solution, in which each milliliter include 7.5 mg of NaCl, 1.7 mg of citric acid monohydrate, 3 mg of disodium phosphate dehydrate, and 0.2 mg of benzalkonium chloride solution (50%). 5 μl of NAT or vehicle solution (DD) were administered intranasally.
Treatment started at 9 months of age and continued daily for a period of 5 weeks. At each test NAT was applied 1 h before the test begun.
Each mouse was placed in a pool of water that is colored opaque with powdered non-fat milk, where it must swim to a hidden escape platform. […]
Experimental procedure: Mice were treated with NAT or vehicle and then habituated for 1 hour in the experiment room. […] The time required for reaching the platform in each trial and the path lengths were measured. […]

## NATLSIHQ (synthetic NAP-like peptide)
  improvement in learning: latency to find the hidden platform, first day vs fifth day, second daily trial: Significant improvement
